The source made the active and inactive calls. The calls are words filed in the database; no cut-off is given here.
Tests used:
[1] = Absorption maximum of the compound in MeOH; type: physicochemical
[2] = Fluorescence property of compound in MeOH assessed as quantum yield; type: physicochemical
[3] = Emission maximum of the compound in THF; type: physicochemical
[4] = Fluorescence property of compound in MeOH assessed as life time; type: physicochemical
[5] = Induction of singlet oxygen generation in MeOH assessed as singlet oxygen quantum yield; type: functional
[6] = Selectivity index, ratio of TC50 for human HeLa cells to EC50 for human HeLa cells
[7] = Absorption property of the compound in THF assessed as extinction coefficient; type: physicochemical
[8] = Phototoxicity against human SK-MEL-28 cells assessed as reduction in cell viability preincubated for 12 hrs followed by 15 mins of light irradiation and measured after 24 hrs by neutral red uptake assay; type: functional, cell-based; settings: SK-MEL-28, light or radiation study
[9] = Phototoxicity against human HeLa cells assessed as reduction in cell viability preincubated for 12 hrs followed by 15 mins of light irradiation and measured after 24 hrs by neutral red uptake assay; type: functional, cell-based; settings: light or radiation study
[10] = Fluorescence property of compound in THF assessed as life time; type: physicochemical
[11] = Induction of singlet oxygen generation in EtOH assessed as singlet oxygen quantum yield; type: functional
[12] = Dark toxicity against human SK-MEL-28 cells assessed as reduction in cell viability incubated for 24 hrs by neutral red uptake assay; type: cell-based; settings: read-out: TC50
[13] = Fluorescence property of compound in THF assessed as quantum yield; type: physicochemical
[14] = Fluorescence property of compound in EtOH assessed as quantum yield; type: physicochemical
[15] = Induction of singlet oxygen generation in THF assessed as singlet oxygen quantum yield; type: functional
[16] = Drug uptake in human HeLa cells assessed per mg protein measured upto 12 hrs by spectrofluorometric method; type: ADME, cell-based
SK-MEL-28 = experiment: Induction of apoptosis in human SK-MEL-28 cells at EC50 concentration preincubated for 12 hrs followed by 15 mins light irradiation and measured every 15 mins for 48 hrs by real time-glo Annexin V assay; type: functional, cell-based; settings: time 3615.0 min
[17] = Absorption maximum of the compound in EtOH; type: physicochemical
[18] = n-Octanol/PBS partition coefficient, logP of the compound at pH 7.4 at 100 uM after 5 mins; type: physicochemical
[19] = Absorption maximum of the compound in THF; type: physicochemical
[20] = Selectivity index, ratio of TC50 for human SK-MEL-28 cells to EC50 for human SK-MEL-28 cells
[21] = Drug localization in adiposome of human HeLa cells at 1 uM after 12 hrs by confocal microscopy analysis; type: ADME, subcellular
[22] = Dark toxicity against human HeLa cells assessed as reduction in cell viability incubated for 24 hrs by neutral red uptake assay; type: cell-based; settings: read-out: TC50
[23] = Drug uptake in human SK-MEL-28 cells assessed per mg protein measured upto 12 hrs by spectrofluorometric method; type: ADME, cell-based; settings: sk-mel-28, 12 h
[24] = Drug localization in adiposome of human SK-MEL-28 cells at 1 uM after 12 hrs by confocal microscopy analysis; type: ADME, subcellular; settings: sk-mel-28, 12 h
[25] = Fluorescence property of compound in acetone assessed as quantum yield; type: physicochemical
[26] = Drug localization in endo-lysosome of human HeLa cells at 1 uM after 12 hrs by confocal microscopy analysis; type: ADME, subcellular
HeLa [27] = experiment: Potency index, ratio of temo-porfin EC50 to test compound EC50 for phototoxicity against human HeLa cells; type: functional
[28] = Drug localization in endo-lysosome of human SK-MEL-28 cells at 1 uM after 12 hrs by confocal microscopy analysis; type: ADME, subcellular; settings: sk-mel-28, 12 h
HeLa [29] = experiment: Potency index, ratio of PpXI EC50 to test compound EC50 for phototoxicity against human HeLa cells; type: functional
HeLa [30] = experiment: Potency index, ratio of S3AlOHPc EC50 to test compound EC50 for phototoxicity against human HeLa cells; type: functional

Row | Compound | Activity [3] [nm] | Activity [7] [M⁻¹ cm⁻¹] | Activity [10] [nanoseconds] | Activity [13] | Activity [14] | Drug uptake [16] [nmol/mg] | Activity [17] [nm] | logD at 5 min, 100 µM [18] | Activity [19] [nm] | Drug uptake [21] | Drug uptake [23] [nmol/mg] | Selectivity Index [6] | EC50 [8] [µM] | EC50 [9] [µM] | Activity [11] | CC50 at 24 h [12] [µM] | Activity [15] | Activity (SK-MEL-28) | Selectivity Index [20] | CC50 at 24 h [22] [µM] | other results
1 | CC1(C)CCC(C)(C)c2cc3c(cc21)C1=Nc2c4cc5c(cc4c4n2[B-]2(Cl)n6c(c7cc8c(cc7c6=N4)C(C)(C)CCC8(C)C)=NC3=[N+]12)C(C)(C)CCC5(C)C (configuration not stated) | 587 | – | – | – | – | – | – | – | – | – | – | – | – | – | – | – | – | – | – | – | Activity [1]: 575 nm; Activity [2]: 0.18; Activity [4]: 2.04 nanoseconds; Activity [5]: 0.65
2 | CCSc1ccc2c(c1)C1=Nc3c4ccc(SCC)cc4c4n3[B-]3(Oc5ccc(C[C@H](NC(=O)OC(C)(C)C)C(=O)OC)cc5)n5c(c6cc(SCC)ccc6c5=N4)=NC2=[N+]13 (some centres not stated) | 596 | 97450 | 1.69 | 0.19 | 0.2 | 0.121 | 582 | 2.63 | 581 | Active | 0.033 | >22 | 4.77 | 4.45 | 0.7 | > 100 | 0.64 | Active | >21 | > 100 | Drug uptake [24]: Active
3 | c1ccc(O[B-]23n4c5c6ccccc6c4N=c4c6ccccc6c(n42)=NC2=[N+]3C(=N5)c3ccccc32)cc1 (configuration not stated) | – | – | – | – | – | – | – | – | 563 | – | – | – | – | – | – | – | – | – | – | – | Activity [25]: 0.18
4 | CCSc1ccc2c(c1)C1=Nc3c4ccc(SCC)cc4c4n3[B-]3(OCc5ccc6c(c5)OCCOCCOCCOCCOCCO6)n5c(c6cc(SCC)ccc6c5=N4)=NC2=[N+]13 (configuration not stated) | 594 | 92080 | 1.77 | 0.21 | 0.2 | 9.69 | 583 | 1.92 | 578 | – | 2.66 | 1193 | 0.0023 | 0.0044 | 0.72 | 14.5 | 0.57 | Active | 6300 | 5.25 | Drug uptake [26]: Active; Ratio EC50 (HeLa [27]): 10; Drug uptake [28]: Active; Ratio EC50 (HeLa [29]): 182; Ratio EC50 (HeLa [30]): 470
5 | Fc1c(F)c(F)c2c(c1F)C1=Nc3c4c(F)c(F)c(F)c(F)c4c4n3[B-]3(OCc5ccc6c(c5)OCCOCCOCCOCCOCCO6)n5c(c6c(F)c(F)c(F)c(F)c6c5=N4)=NC2=[N+]13 (configuration not stated) | 579 | 81000 | – | 0.014 | 0.014 | – | 567 | – | 568 | – | – | 1.06 | 16.3 | 6.4 | 0.056 | 18.9 | 0.086 | – | 1.16 | 6.78 | –
6 | COC(=O)[C@H](Cc1ccc(O[B-]23n4c5c6c(F)c(F)c(F)c(F)c6c4N=c4c6c(F)c(F)c(F)c(F)c6c(n42)=NC2=[N+]3C(=N5)c3c(F)c(F)c(F)c(F)c32)cc1)NC(=O)OC(C)(C)C (some centres not stated) | 578 | 27790 | – | 0.09 | 0.09 | – | 567 | – | 568 | – | – | 1.03 | 66.2 | 64 | 0.19 | > 100 | 0.19 | – | >1.51 | 65.7 | –
7 | CCSc1ccc2c(c1)C1=Nc3c4ccc(SCC)cc4c4n3[B@-]3(Oc5ccc(C[C@H](N)C(=O)OC)cc5)n5c(c6cc(SCC)ccc6c5=N4)=NC2=[N+]13 | 594 | 66510 | 1.71 | 0.17 | 0.16 | 0.622 | 583 | 1.93 | 579 | Active | 0.367 | 573 | 0.22 | 0.12 | 0.5 | > 100 | 0.49 | Active | >455 | 68.8 | Drug uptake [24]: Active

Now from value to molecule, other results behind:

Row | Activity [3] [nm] | Activity [7] [M⁻¹ cm⁻¹] | Activity [10] [nanoseconds] | Activity [13] | Activity [14] | Drug uptake [16] [nmol/mg] | Activity [17] [nm] | logD at 5 min, 100 µM [18] | Activity [19] [nm] | Drug uptake [21] | Drug uptake [23] [nmol/mg] | Compound | Selectivity Index [6] | EC50 [8] [µM] | EC50 [9] [µM] | Activity [11] | CC50 at 24 h [12] [µM] | Activity [15] | Activity (SK-MEL-28) | Selectivity Index [20] | CC50 at 24 h [22] [µM] | other results
8 | 578 | 37460 | 0.34 | 0.01 | 0.01 | – | 569 | 1.79 | 568 | – | – | COC(=O)[C@@H](N)Cc1ccc(O[B-]23n4c5c6ccc(I)cc6c4N=c4c6ccc(I)cc6c(n42)=NC2=[N+]3C(=N5)c3ccc(I)cc32)cc1 (some centres not stated) | – | > 100 | > 100 | 0.29 | > 100 | 0.49 | – | – | > 100 | –
9 | 578 | 80750 | 0.35 | 0.022 | 0.022 | 0.33 | 569 | – | 568 | Active | 0.005 | Ic1ccc2c(c1)C1=[N+]3C2=Nc2c4ccc(I)cc4c4n2[B@-]3(OCc2ccc3c(c2)OCCOCCOCCOCCOCCO3)n2c(c3cc(I)ccc3c2=N4)=N1 | 356 | 0.038 | 0.066 | 0.59 | 71.8 | 0.57 | Active | 1891 | 23.5 | Drug uptake [24]: Active
10 | 577 | 106120 | 0.3 | 0.03 | 0.03 | – | 568 | 2.22 | 569 | Active | – | COC(=O)[C@H](Cc1ccc(O[B@@-]23n4c5c6ccc(I)cc6c4N=c4c6ccc(I)cc6c(n42)=NC2=[N+]3C(=N5)c3ccc(I)cc32)cc1)NC(=O)OC(C)(C)C | >4 | 11.8 | 12.2 | 0.86 | > 50 | 0.64 | – | >4 | > 50 | Drug uptake [24]: Active
11 | 581 | 65160 | 0.3 | 0.03 | 0.03 | – | 569 | – | 572 | – | – | Cl[B-]12n3c4c5ccc(I)cc5c3N=c3c5ccc(I)cc5c(n31)=NC1=[N+]2C(=N4)c2ccc(I)cc21 (configuration not stated) | – | – | – | 0.77 | – | 0.7 | – | – | – | –

Source: ChEMBL document CHEMBL5053548, “Subphthalocyanines as Efficient Photosensitizers with Nanomolar Photodynamic Activity against Cancer Cells” (J Med Chem, 2021)
